Target: T1, erg-mediated K+ (Kerg, KV11) channel (Rattus norvegicus, UniProt O08962)
T1 construct: gene Kcnh2; native channel in GH3 pituitary tumor cells
T1 sequence (O08962 1-1163): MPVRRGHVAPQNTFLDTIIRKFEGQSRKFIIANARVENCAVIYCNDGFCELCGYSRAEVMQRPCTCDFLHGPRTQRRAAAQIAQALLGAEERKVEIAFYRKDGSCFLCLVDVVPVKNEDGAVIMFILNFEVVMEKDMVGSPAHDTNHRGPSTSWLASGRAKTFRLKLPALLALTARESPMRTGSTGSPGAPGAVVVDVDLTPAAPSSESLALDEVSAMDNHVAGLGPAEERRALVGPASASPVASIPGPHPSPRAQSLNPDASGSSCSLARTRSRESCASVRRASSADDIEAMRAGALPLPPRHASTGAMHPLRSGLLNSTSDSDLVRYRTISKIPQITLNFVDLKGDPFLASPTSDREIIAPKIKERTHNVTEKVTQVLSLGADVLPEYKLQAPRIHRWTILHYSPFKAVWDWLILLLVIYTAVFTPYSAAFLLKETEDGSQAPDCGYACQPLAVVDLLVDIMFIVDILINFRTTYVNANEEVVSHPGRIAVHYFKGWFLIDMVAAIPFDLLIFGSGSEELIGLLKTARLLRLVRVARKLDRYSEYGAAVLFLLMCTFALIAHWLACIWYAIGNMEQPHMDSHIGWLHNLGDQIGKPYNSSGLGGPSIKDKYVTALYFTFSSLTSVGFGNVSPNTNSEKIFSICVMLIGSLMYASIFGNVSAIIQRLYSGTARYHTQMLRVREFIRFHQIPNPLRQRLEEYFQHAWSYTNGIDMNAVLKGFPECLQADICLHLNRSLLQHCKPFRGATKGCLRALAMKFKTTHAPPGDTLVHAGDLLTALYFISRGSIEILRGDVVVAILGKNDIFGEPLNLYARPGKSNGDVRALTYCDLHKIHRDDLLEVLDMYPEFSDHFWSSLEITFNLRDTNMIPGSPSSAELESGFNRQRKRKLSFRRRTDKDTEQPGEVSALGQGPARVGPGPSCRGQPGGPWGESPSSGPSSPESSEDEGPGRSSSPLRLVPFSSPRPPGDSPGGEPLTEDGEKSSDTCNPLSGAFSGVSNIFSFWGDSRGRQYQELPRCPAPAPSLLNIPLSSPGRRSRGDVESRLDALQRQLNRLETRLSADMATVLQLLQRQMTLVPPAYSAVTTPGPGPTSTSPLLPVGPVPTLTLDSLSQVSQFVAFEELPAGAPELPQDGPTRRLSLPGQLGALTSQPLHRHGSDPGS
Assay: whole-cell patch clamp of native IK(erg) in GH3 cells; concentration-response and deactivation kinetics (KD […])
Type: cell-based

Q: Which IC50 does the source give for `CCCCCCCCCCCOC(=O)CCCCCN(CCO)CCCCCCCC(=O)OC(CCCCCCCC)CCCCCCCC` [SM-102, 1-octylnonyl 8-[(2-hydroxyethyl)[6-oxo-6-(undecyloxy)hexyl]amino]-octanoate] here?
A: The IC50 was 108 µM.
